Measured values as given in patent US8546420B2, “4, 5-ring annulated indole derivatives for treating or preventing of HCV and related viral infections” (Merck Sharp & Dohme Corp., priority 2006, dated 2013).

Columns and labels:
HCV NS5B polymerase = target: T1, HCV NS5B polymerase (Hepatitis C virus genotype 1b, UniProt P26663); experiment: HCV NS5B Polymerase Inhibition Assay; type: biochemical
T1 construct: A soluble C-terminal 21-amino acid truncated NS5B enzyme form; polyhistidine (C); made in house; host or cells: Escherichia coli
T1 sequence (P26663 2420-2989): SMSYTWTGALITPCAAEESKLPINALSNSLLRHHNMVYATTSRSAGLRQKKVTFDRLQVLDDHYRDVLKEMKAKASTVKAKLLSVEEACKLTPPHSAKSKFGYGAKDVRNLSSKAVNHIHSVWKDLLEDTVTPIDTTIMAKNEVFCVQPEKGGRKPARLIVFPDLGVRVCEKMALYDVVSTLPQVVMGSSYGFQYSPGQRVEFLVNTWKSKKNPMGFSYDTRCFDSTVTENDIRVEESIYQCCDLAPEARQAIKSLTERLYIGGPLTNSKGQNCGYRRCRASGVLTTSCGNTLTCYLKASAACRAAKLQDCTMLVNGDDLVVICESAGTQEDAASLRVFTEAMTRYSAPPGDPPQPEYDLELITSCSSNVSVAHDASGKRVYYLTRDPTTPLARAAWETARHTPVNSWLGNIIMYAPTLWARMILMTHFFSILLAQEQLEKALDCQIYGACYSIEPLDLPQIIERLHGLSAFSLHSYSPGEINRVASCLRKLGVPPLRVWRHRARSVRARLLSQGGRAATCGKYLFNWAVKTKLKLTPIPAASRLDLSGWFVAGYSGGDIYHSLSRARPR
Description: A chemically synthesized 75-mer version, designated DCoH75, whose sequence matches the 3′-end of D-RNA, and DCoH75ddC, where the 3′-terminal cytidine of DCoH75 is replaced by dideoxycytidine, were used for assaying the NS5B enzyme activity as described in Ferrari et al., 12th International Symposium on HCV and Related Viruses, P-306 (2005). A soluble C-terminal 21-amino acid truncated NS5B enzyme form (NS5B[…]CT21) was produced and purified from Escherichia coli as C-terminal polyhistidine-tagged fusion protein as described in Ferrari et al., J. Virol. 73:1649-1654 (1999). A typical assay contained 20 mM Hepes pH 7.3, 10 mM MgCl2, 60 mM NaCl, 100 μg/ml BSA, 20 units/ml RNasin, 7.5 mM DTT, 0.1 μM ATP/GTP/UTP, 0.026 μM CTP, 0.25 mM GAU, 0.03 μM RNA template, 20 μCi/ml [^33P]-CTP, 2% DMSO, and 30 or 150 nM NS5B enzyme. Reactions were incubated at 22° C. for 2 hours, then stopped by adding 150 mM EDTA, washed in DE81 filter plate in 0.5M di-basic sodium phosphate buffer, pH 7.0, and counted using Packard TopCount after the addition of scintillation cocktail. Polynucleotide synthesis was monitored by the incorporation of radiolabeled CTP. The effect of the Compounds of Formula (I) on the polymerase activity was evaluated by adding various concentrations of a Compound of Formula (I), typically in 10 serial 2-fold dilutions, to the assay mixture. The starting concentrations of the indole derivatives ranged from 200 μM to 1 μM. An IC50 value for the inhibitor, defined as the compound concentration that provides 50% inhibition of polymerase activity, was determined by fitting the cpm data to the Hill equation Y=100/(1+10^((Log IC50−X)*HillSlope)), where X is the logarithm of compound concentration, and Y is the % inhibition. Ferrari et al., 12th International Symposium on HCV and Related Viruses, P-306 (2005) described in detail this assay procedure. It should be noted that such an assay as described is exemplary and not intended to limit the scope of the invention. The skilled practitioner can appreciate that modifications including but not limited to RNA template, primer, nucleotides, NS5B polymerase form, buffer composition, can be made to develop similar assays that yield the same result for the efficacy of the compounds and compositions described in the invention.
NS5B polymerase inhibition data for selected Compounds of Formula (I) is provided below in Table 2, wherein the compound numbers correspond to the compound numbering set forth in the above specification.

HCV replicon cells = experiment: Cell-Based HCV Replicon Assay; settings: Hepatitis C virus, 72 h; replicon RNA level by real time PCR (Taqman), cells harvested on day 3
Experimental: To measure cell-based anti-HCV activity of the a Compound of Formula (I), replicon cells were seeded at 5000 cells/well in 96-well collagen I-coated Nunc plates in the presence of the Compound of Formula (I). Various concentrations of a Compound of Formula (I), typically in 10 serial 2-fold dilutions, were added to the assay mixture, the starting concentration of the compound ranging from 250 μM to 1 μM. The final concentration of DMSO was 0.5%, fetal bovine serum was 5%, in the assay media. Cells were harvested on day 3 by the addition of 1× cell lysis buffer (Ambion cat #8721). The replicon RNA level was measured using real time PCR (Taqman assay). The amplicon was located in 5B. The PCR primers were: 5B.2F, ATGGACAGGCGCCCTGA; 5B.2R, […]; the probe sequence was FAM-labeled CACGCCATGCGCTGCGG. GAPDH RNA was used as endogenous control and was amplified in the same reaction as NS5B (multiplex PCR) using primers and VIC-labeled probe recommended by the manufacturer (PE Applied Biosystem). The real-time RT-PCR reactions were run on ABI PRISM 7900HT Sequence Detection System using the following program: 48° C. for 30 min, 95° C. for 10 min, 40 cycles of 95° C. for 15 sec, 60° C. for 1 min. The ACT values (CT5B-CTGAPDH) were plotted against the concentration of test compound and fitted to the sigmoid dose-response model using XLfit4 (MDL). EC50 was defined as the concentration of inhibitor necessary to achieve ΔCT=1 over the projected baseline; EC90 the concentration necessary to achieve […] over the baseline. Alternatively, to quantitate the absolute amount of replicon RNA, a standard curve was established by including serially diluted T7 transcripts of replicon RNA in the Taqman assay. All Taqman reagents were from PE Applied Biosystems. Such an assay procedure was described in detail in e.g. Malcolm et al., Antimicrobial Agents and Chemotherapy 50: 1013-1020 (2006).
HCV Replicon assay data for selected Compounds of Formula (I) is provided below in Table 3, wherein the compound numbers correspond to the compound numbering set forth in the above specification. The data is designated as follows: “A” for EC50 values less than 1.0 micromolar (μM), “B” for EC50 values between 1.0 and 10.0 μM and “C” for EC50 values greater than 10.0 μM.

| Compound | IC50 (HCV NS5B polymerase) | EC50 (HCV replicon cells) |
| --- | --- | --- |
| O=C(O)c1cccc(Cn2c(C(=O)O)c(-c3ccc[nH]c3=O)c3c4ccccc4ccc32)c1 [Compound 8] | > 100 nM |  |
| CS(=O)(=O)Nc1cccc(S(=O)(=O)NC(=O)c2c(-c3ccc[nH]c3=O)c3c4ccccc4ccc3n2Cc2ccc(F)cc2F)c1 [Compound 16] | < 25 nM | < 1 µM |
| O=C(O)c1c(-c2ccc[nH]c2=O)c2c3ncccc3ccc2n1Cc1ccccc1F [Compound 18] | > 100 nM | 1 to 10 µM |
| O=C(O)c1c(-c2ccc[nH]c2=O)c2c3ccccc3c(F)cc2n1Cc1cc([N+](=O)[O-])ccc1F [Compound 27] | 25 to 100 nM | < 1 µM |
| O=C(O)c1c(-c2ccc[nH]c2=O)c2c3c(ccc2n1Cc1cc(F)ccc1F)OCCO3 [Compound 26] | < 25 nM | < 1 µM |
| CS(=O)(=O)NC(=O)c1c(-c2ccc[nH]c2=O)c2c3c(ccc2n1Cc1cc(F)ccc1F)OCCO3 [Compound 20] | < 25 nM | < 1 µM |
| Nc1cc(Cn2c(C(=O)O)c(-c3ccccc3F)c3c4ccccc4ccc32)ncn1 [Compound 5] | > 100 nM | > 10 µM |
| Nc1cc(Cn2c(C(=O)O)c(-c3ccc[nH]c3=O)c3c4ccccc4ccc32)ccn1 [Compound 4] | > 100 nM | 1 to 10 µM |
| CS(=O)(=O)NC(=O)c1c(-c2ccc[nH]c2=O)c2c3c(ccc2n1Cc1ccccc1F)CCCO3 [Compound 21] | < 25 nM | < 1 µM |
| CC(C)(C)S(=O)(=O)NC(=O)c1c(-c2ccc[nH]c2=O)c2c3ccccc3ccc2n1Cc1ccnc(N)c1 [Compound 13] | 25 to 100 nM |  |
| O=C(NS(=O)(=O)C1CC1)c1c(-c2ccc[nH]c2=O)c2c3c(ccc2n1Cc1cc(F)ccc1F)CCCO3 [Compound 32] | < 25 nM | < 1 µM |
| O=C(O)c1c(-c2ccc[nH]c2=O)c2c3ncccc3ccc2n1Cc1cc(F)ccc1F [Compound 17] | 25 to 100 nM | 1 to 10 µM |
| CS(=O)(=O)NC(=O)c1c(-c2ccc[nH]c2=O)c2c3c(ccc2n1Cc1cc(F)ccc1F)CCCO3 [Compound 29] | < 25 nM | < 1 µM |
| CCS(=O)(=O)NC(=O)c1c(-c2ccc[nH]c2=O)c2c3ccccc3ccc2n1Cc1ccnc(N)c1 [Compound 14] | 25 to 100 nM | 1 to 10 µM |
| CS(=O)(=O)NC(=O)c1c(-c2ccc[nH]c2=O)c2c3ccccc3ccc2n1Cc1cccc(C(=O)O)c1 [Compound 12] | < 25 nM | > 10 µM |
| O=C(O)c1c(-c2ccc[nH]c2=O)c2c3ccccc3c(F)cc2n1Cc1ccccc1F [Compound 24] | 25 to 100 nM | 1 to 10 µM |
| O=C(O)c1c(-c2ccc[nH]c2=O)c2c3c(ccc2n1Cc1ccccc1F)CCCO3 [Compound 22] | < 25 nM | < 1 µM |

| Compound | IC50 (HCV NS5B polymerase) | EC50 (HCV replicon cells) |
| --- | --- | --- |
| CS(=O)(=O)NC(=O)c1c(-c2ccc[nH]c2=O)c2c3c(ccc2n1Cc1ccccc1F)OCCO3 [Compound 28] | < 25 nM | < 1 µM |
| Nc1cc(Cn2c(C(=O)O)c(-c3ccccc3F)c3c4ccccc4ccc32)ccn1 [Compound 3] | > 100 nM | 1 to 10 µM |
| CS(=O)(=O)NC(=O)c1c(-c2ccc[nH]c2=O)c2c3ccccc3ccc2n1Cc1ccnc(N)c1 [Compound 6] | 25 to 100 nM | > 10 µM |
| O=C(NS(=O)(=O)C1CC1)c1c(-c2ccc[nH]c2=O)c2c3ccccc3c(F)cc2n1Cc1cc([N+](=O)[O-])ccc1F [Compound 33] | < 25 nM | < 1 µM |
| Nc1cc(Cn2c(C(=O)NS(=O)(=O)c3ccccc3)c(-c3ccc[nH]c3=O)c3c4ccccc4ccc32)ccn1 [Compound 11] | 25 to 100 nM | 1 to 10 µM |
| O=C(O)c1c(-c2ccc[nH]c2=O)c2c3ncccc3ccc2n1Cc1ccc(F)cc1F [Compound 19] | > 100 nM |  |
| O=C(NS(=O)(=O)C1CC1)c1c(-c2ccc[nH]c2=O)c2c3ccccc3c(F)cc2n1Cc1ccccc1F [Compound 31] | < 25 nM | < 1 µM |
| O=C(O)c1c(-c2ccccc2F)c2c3ccccc3ccc2n1Cc1ccccc1 [Compound 2] | > 100 nM |  |
| CS(=O)(=O)NC(=O)c1cccc(Cn2c(C(=O)NS(C)(=O)=O)c(-c3ccc[nH]c3=O)c3c4ccccc4ccc32)c1 [Compound 9] | 25 to 100 nM |  |
| Nc1cc(Cn2c(C(=O)NS(=O)(=O)c3ccc(O)cc3)c(-c3ccc[nH]c3=O)c3c4ccccc4ccc32)ccn1 [Compound 15] | 25 to 100 nM | 1 to 10 µM |
| O=C(O)c1c(-c2ccc[nH]c2=O)c2c3c(ccc2n1Cc1cc(F)ccc1F)CCCO3 [Compound 25] | < 25 nM | < 1 µM |
| O=C(O)c1cccc(Cn2c(C(=O)O)c(-c3ccccc3F)c3c4ccccc4ccc32)c1 [Compound 7] | > 100 nM | > 10 µM |
| O=C(O)c1c(-c2ccc[nH]c2=O)c2c3c(ccc2n1Cc1ccccc1F)OCCO3 [Compound 23] | < 25 nM | 1 to 10 µM |
| O=C(NS(=O)(=O)C1CC1)c1c(-c2ccc[nH]c2=O)c2c3c(ccc2n1Cc1ccccc1F)CCCO3 [Compound 30] | < 25 nM | < 1 µM |
| COC(=O)c1cccc(Cn2c(C(=O)NS(C)(=O)=O)c(-c3ccc[nH]c3=O)c3c4ccccc4ccc32)c1 [Compound 10] | < 25 nM | 1 to 10 µM |
| Nc1ccccc1Cn1c(C(=O)O)c(-c2ccccc2F)c2c3ccccc3ccc21 [Compound 1] | > 100 nM | > 10 µM |
